Test results published in patent US20250318532A1, “ASCAROSIDE COMBINATIONS” (Ascribe Bioscience Inc., priority 2022, published 2025).

System: Asian Soybean Rust (ASR)
Assay: Soybean field trial in Brazil, ascaroside with Chlorothalonil and APROACH POWER
Format: in vivo
Details: ascaroside alone, 250 mg/ac, foliar spray, relative to untreated controls

CC1OC(O[C@H](C)CCCCCCCCC(=O)O)C(O)CC1O (stereo partly shown) [ascr #18]
protection against Asian Soybean Rust: 20-40%
